One assay concerns the target T1, Human Calpain 1/NS1 (Homo sapiens, UniProt P07384).
T1 sequence (P07384 1-714): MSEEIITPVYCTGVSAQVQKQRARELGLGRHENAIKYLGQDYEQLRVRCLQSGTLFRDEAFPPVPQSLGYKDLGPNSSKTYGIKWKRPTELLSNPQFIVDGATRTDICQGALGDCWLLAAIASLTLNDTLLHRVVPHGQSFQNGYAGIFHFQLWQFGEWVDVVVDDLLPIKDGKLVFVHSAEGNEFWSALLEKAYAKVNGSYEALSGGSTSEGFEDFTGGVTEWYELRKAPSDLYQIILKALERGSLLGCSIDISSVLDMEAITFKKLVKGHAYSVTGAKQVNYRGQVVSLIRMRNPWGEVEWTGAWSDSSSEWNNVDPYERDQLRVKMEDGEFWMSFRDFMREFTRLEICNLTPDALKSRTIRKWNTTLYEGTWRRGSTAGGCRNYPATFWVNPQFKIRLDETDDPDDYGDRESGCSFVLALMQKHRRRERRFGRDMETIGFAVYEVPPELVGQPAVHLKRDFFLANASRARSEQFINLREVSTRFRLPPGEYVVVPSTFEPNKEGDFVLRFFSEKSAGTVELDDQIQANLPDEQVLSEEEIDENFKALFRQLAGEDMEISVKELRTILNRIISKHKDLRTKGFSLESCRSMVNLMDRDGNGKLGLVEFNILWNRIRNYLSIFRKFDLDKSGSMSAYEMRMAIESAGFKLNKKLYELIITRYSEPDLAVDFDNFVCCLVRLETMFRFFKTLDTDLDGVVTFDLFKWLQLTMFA
T1 sequence (P04632 1-268 partner): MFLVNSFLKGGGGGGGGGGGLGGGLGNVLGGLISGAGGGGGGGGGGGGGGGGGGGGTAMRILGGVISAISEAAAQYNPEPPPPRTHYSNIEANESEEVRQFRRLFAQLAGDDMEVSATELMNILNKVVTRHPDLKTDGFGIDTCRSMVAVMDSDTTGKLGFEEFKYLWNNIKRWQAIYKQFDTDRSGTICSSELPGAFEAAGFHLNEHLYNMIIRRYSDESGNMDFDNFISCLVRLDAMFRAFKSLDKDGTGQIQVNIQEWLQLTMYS
Nature of the assay: Biochemical inhibition of calpain 1, continuous fluorescence (FRET substrate) assay. The settings on record: mean, read-out: Human Calpain 1/NS1 IC50 (nM)_MEAN. In short, it runs like this: (§1)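 IC50 values come from 4-parameter fits of progress-curve rates (1-5 min slopes) against log inhibitor concentration. Calpain and inhibitor premixed at ambient 25C in Tris pH ~7.5/NaCl/DTT buffer, then CaCl2 and FRET substrate added to activate; 5-FAM fluorescence (ex 490/em 520) followed 10 min.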

Another assay addresses T2, Human Calpain 2/NS1 (Homo sapiens, UniProt P17655).
T2 sequence (P17655 1-700): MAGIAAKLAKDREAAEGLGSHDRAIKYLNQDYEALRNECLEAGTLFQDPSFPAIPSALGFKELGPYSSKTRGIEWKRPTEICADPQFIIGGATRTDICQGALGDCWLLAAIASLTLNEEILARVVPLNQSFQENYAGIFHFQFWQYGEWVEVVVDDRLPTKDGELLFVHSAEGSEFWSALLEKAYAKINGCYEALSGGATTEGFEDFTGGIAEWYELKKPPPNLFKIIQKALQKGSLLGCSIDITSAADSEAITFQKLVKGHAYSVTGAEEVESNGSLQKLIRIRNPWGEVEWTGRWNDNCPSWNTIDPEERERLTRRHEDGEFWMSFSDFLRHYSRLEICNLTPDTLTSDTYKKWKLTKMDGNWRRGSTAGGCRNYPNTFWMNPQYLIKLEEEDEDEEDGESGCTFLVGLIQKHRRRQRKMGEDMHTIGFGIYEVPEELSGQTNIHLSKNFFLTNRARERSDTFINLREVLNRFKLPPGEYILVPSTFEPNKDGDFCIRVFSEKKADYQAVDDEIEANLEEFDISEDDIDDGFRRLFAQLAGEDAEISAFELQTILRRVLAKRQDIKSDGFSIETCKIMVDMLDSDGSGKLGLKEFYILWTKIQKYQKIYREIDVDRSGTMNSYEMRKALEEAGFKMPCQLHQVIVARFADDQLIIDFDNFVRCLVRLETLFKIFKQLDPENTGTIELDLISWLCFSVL
T2 sequence (P04632 1-268 partner): T1 sequence (P04632 1-268 partner)
Nature of the assay: Biochemical inhibition of calpain 2, continuous fluorescence (FRET substrate) assay. Particulars: mean, read-out: Human Calpain 2/NS1 IC50 (nM)_MEAN. The procedure, abridged:
as §1

A further assay has as its target T3, Human Calpain 9/NS1 (Homo sapiens, UniProt O14815).
T3 sequence (O14815 1-690): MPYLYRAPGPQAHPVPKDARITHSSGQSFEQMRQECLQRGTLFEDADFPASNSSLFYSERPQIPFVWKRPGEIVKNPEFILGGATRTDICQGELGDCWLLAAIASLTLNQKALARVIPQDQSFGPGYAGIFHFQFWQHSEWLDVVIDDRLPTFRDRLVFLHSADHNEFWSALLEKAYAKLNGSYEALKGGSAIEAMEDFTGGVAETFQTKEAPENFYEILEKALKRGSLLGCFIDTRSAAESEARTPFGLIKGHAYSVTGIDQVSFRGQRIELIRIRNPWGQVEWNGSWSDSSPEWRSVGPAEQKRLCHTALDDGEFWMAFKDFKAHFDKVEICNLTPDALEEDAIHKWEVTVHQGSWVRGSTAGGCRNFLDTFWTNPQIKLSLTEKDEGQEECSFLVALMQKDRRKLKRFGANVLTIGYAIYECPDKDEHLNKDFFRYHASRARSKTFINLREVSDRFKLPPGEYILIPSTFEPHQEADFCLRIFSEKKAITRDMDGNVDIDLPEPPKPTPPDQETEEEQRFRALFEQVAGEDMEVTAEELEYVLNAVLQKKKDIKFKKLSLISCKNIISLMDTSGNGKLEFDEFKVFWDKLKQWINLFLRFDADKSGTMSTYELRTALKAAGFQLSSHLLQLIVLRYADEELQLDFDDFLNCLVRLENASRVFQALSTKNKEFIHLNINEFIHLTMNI
T3 sequence (P04632 1-268 partner): T1 sequence (P04632 1-268 partner)
Briefly: Biochemical inhibition of calpain 9, continuous fluorescence (FRET substrate) assay. Particulars: mean, read-out: Human Calpain 9/NS1 IC50 (nM)_MEAN. In short, it runs like this: as §1

Structures are written as SMILES. Some results are limits rather than exact numbers.

On to `O=C[C@@H]1CC=CCOCCOc2ccccc2C(=O)N1` [Compound 18, (S)-11-Oxo-2,3,8,9,10,11-hexahydro-5h-benzo[e][1,4]dioxa[8]azacyclotridecine-9-carbaldehyde], for which the IC50 at Human Calpain 1/NS1 is more than 10000 nM; at Human Calpain 2/NS1, more than 10000 nM; at Human Calpain 9/NS1 it was 3000 to 10000 nM.

On to `O=C(NCc1ccccc1)C(=O)[C@@H]1CC=CCCCCOc2ccccc2C(=O)N1` [Compound 7, (S)—N-benzyl-2-oxo-2-(11-oxo-2,3,4,5,8,9,10,11-octahydrobenzo[b][1]oxa[5]azacyclotridecin-9-yl)acetamide], for which the figures for the IC50 on Human Calpain 1/NS1, at Human Calpain 2/NS1 and on Human Calpain 9/NS1 were more than 10000 nM, more than 10000 nM and 3000 to 10000 nM, respectively.

Regarding `O=C(NCCc1ccccc1)C(=O)C1CCCCOCCOCc2ccccc2C(=O)N1` (stereo not drawn) [Compound 104, 2-Oxo-2-(12-oxo-1,3,4,6,7,8,9,10,11,12-decahydrobenzo[f][1,4]dioxa[9]aza-cyclotetradecin-10-yl)-N-phenethylacetamide], the IC50 on Human Calpain 1/NS1 was more than 10000 nM; on Human Calpain 2/NS1 it was 3000 to 10000 nM; on Human Calpain 9/NS1, less than 3000 nM.

For the molecule `NC(=O)C(=O)[C@@H]1CCCCCCOc2ccnc(n2)-c2ccccc2C(=O)N1` [Compound 134, (S)-2-oxo-2-(3-oxo-12-oxa-4-aza-1(2,4)-pyrimidina-2(1,2)-benzenacyclododecaphane-5-yl)acetamide], the IC50 at Human Calpain 1/NS1, at Human Calpain 2/NS1 and on Human Calpain 9/NS1 was less than 3000 nM throughout.

`O=C[C@@H]1Cc2ccc(cc2)CC=CCc2cccc(c2)-c2ccn(n2)-c2ncccc2C(=O)N1` [Compound 75, (2^2E,10S)-12-oxo-2^1H-11-aza-1(2,3)-pyridina-2(1,3)-pyrazola-3(1,3),8(1,4)-dibenzenacyclododecaphan-5-ene-10-carbaldehyde]: the IC50 on Human Calpain 1/NS1, at Human Calpain 2/NS1 and at Human Calpain 9/NS1 was less than 3000 nM throughout.

Regarding `CC(C)NC(=O)C(=O)[C@@H]1C/C=C\COCCOCc2ccccc2C(=O)N1` [Compound 58, (S,Z)—N-isopropyl-2-oxo-2-(12-oxo-1,3,4,6,9,10,11,12-octahydrobenzo[f][1,4]dioxa[9]azacyclotetradecin-10-yl)acetamide], the IC50 on Human Calpain 1/NS1, at Human Calpain 2/NS1 and on Human Calpain 9/NS1 was more than 10000 nM each time.

Regarding `O=C[C@@H]1Cc2ccc(cc2)OCC=CCOc2ccc3nn(cc3c2)-c2ncccc2C(=O)N1` [Compound 71, (1^3Z,1^4E,5S)-3-oxo-1^2H-8,13-dioxa-4-aza-1(2,5)-indazola-2(2,3)-pyridina-7(1,4)-benzenacyclotridecaphan-10-ene-5-carbaldehyde], the IC50 on Human Calpain 1/NS1, on Human Calpain 2/NS1 and on Human Calpain 9/NS1 was less than 3000 nM in each case.

Regarding `O=C[C@@H]1CC=CCCOc2nccc(n2)-c2ccccc2C(=O)N1` [Compound 40, (S)-11-Oxo-3-oxa-10-aza-1(2,3)-pyridina-2(1,3)-benzena-cycloundecaphane-9-carbaldehyde], the IC50 was 3000 to 10000 nM at Human Calpain 1/NS1, less than 3000 nM at Human Calpain 2/NS1 and less than 3000 nM at Human Calpain 9/NS1.

Turning to `Cc1ccc(Cl)cc1CNC(=O)C(=O)C1CCCCOCCOCc2ccccc2C(=O)N1` (stereo not drawn) [Compound 108, N-(5-chloro-2-methylbenzyl)-2-oxo-2-(12-oxo-1,3,4,6,7,8,9,10,11,12-decahydrobenzo[f][1,4]dioxa[9]azacyclotetradecin-10-yl)acetamide], the IC50 at Human Calpain 1/NS1 is more than 10000 nM; on Human Calpain 2/NS1, 3000 to 10000 nM; at Human Calpain 9/NS1, less than 3000 nM.

As to `CCCCNC(=O)C(=O)[C@@H]1C/C=C\COCCOCc2ccccc2C(=O)N1` [Compound 59, (S,Z)—N-butyl-2-oxo-2-(12-oxo-1,3,4,6,9,10,11,12-octahydrobenzo[f][1,4]dioxa[9]azacyclotetradecin-10-yl)acetamide], the IC50 at Human Calpain 1/NS1 is more than 10000 nM; at Human Calpain 2/NS1, more than 10000 nM; at Human Calpain 9/NS1, less than 3000 nM.

`O=C[C@@H]1Cc2ccccc2CCCOCCCn2cncc2C(=O)N1` [Compound 22]: the IC50 on Human Calpain 1/NS1 is 3000 to 10000 nM; on Human Calpain 2/NS1 it was 3000 to 10000 nM; on Human Calpain 9/NS1, more than 10000 nM.

With `CN(C)CCNC(=O)C(=O)C1CCCCOCCOCc2ccccc2C(=O)N1` (stereo not drawn) [Compound 110, N-(2-(dimethylamino)ethyl)-2-oxo-2-(12-oxo-1,3,4,6,7,8,9,10,11,12-decahydrobenzo[f][1,4]dioxa[9]azacyclotetradecin-10-yl)acetamide], the IC50 on Human Calpain 1/NS1 was more than 10000 nM; at Human Calpain 2/NS1 it was more than 10000 nM; at Human Calpain 9/NS1, 3000 to 10000 nM.

In the case of `O=C[C@@H]1CCCCCCCCc2cccnc2C(=O)N1` [Compound 49, (S)-15-Oxo-6,7,8,9,10,11,12,13,14,15-decahydro-5h-pyrido[2,3-c][1]aza-cyclotridecine-13-carbaldehyde], the IC50 at Human Calpain 1/NS1 was more than 10000 nM; on Human Calpain 2/NS1 it was 3000 to 10000 nM; on Human Calpain 9/NS1 it was less than 3000 nM.

Regarding `O=C(NCCc1cccnc1)C(=O)C1CCCCOCCOCc2ccccc2C(=O)N1` (stereo not drawn) [Compound 101, 2-Oxo-2-(12-oxo-1,3,4,6,7,8,9,10,11,12-decahydrobenzo[f][1,4]dioxa[9]aza-cyclotetradecin-10-yl)-N-(2-(pyridin-3-yl)ethyl)acetamide], the IC50 on Human Calpain 1/NS1 is more than 10000 nM; at Human Calpain 2/NS1, more than 10000 nM; at Human Calpain 9/NS1, 3000 to 10000 nM.

On to `O=C[C@@H]1CCCCCCCOc2ccccc2C(=O)N1` [Compound 6, (S)-11-Oxo-2,3,4,5,6,7,8,9,10,11-decahydrobenzo[b][1]oxa[5]azacyclotridecine-9-carbaldehyde], for which the IC50 at Human Calpain 1/NS1 is 3000 to 10000 nM; on Human Calpain 2/NS1, less than 3000 nM; on Human Calpain 9/NS1, less than 3000 nM.

Regarding `O=C(NCc1ccccc1)C(=O)C1CCCCOCCOCc2ccccc2C(=O)N1` (stereo not drawn) [Compound 97, N-benzyl-2-oxo-2-(12-oxo-1,3,4,6,7,8,9,10,11,12-decahydrobenzo[f][1,4]dioxa[9]azacyclotetradecin-10-yl)acetamide], the IC50 on Human Calpain 1/NS1 was more than 10000 nM; at Human Calpain 2/NS1, more than 10000 nM; on Human Calpain 9/NS1 it was less than 3000 nM.

For the origin of these results see patent US11292801B2, “Calpain modulators and therapeutic uses thereof” (Blade Therapeutics, Inc., priority 2016, dated 2022).
